Results taken from PubChem BioAssay AID256 (DTP/NCI, 2004).
“And” between values parts separate entries of the source, which are not always exact repeats. Equal entries are not always repeated. Toxic doses and inconclusive results are not listed.

Test system: CD2F1 mice, L1210 leukemia ip, survival T/C
Test: NCI In Vivo Anticancer Drug Screen. Data for tumor model L1210 Leukemia (intraperitoneal) in CD2F1 (CDF1) mice
Settings: endpoint: mean survival time, higher = longer survival
Summary of the method: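 In this screen, transplantable tumors were grown in mice given either the compound or its vehicle. Results were expressed as the treated measurement relative to the control measurement.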

[1] = dose: 400.0 mg/kg/injection, schedule: Q01DX001 (ip), vehicle: saline
[2] = dose: 75.0 mg/kg/injection, schedule: Q01DX001 (ip), vehicle: saline

## C/C(=N/O)c1ccc2c(c1)C(C)c1ccccc1-2 (stereo not given)
dose: 100.0 mg/kg/injection, schedule: Q01DX001 (ip), vehicle: saline
  T/C: 112 % of control
dose: 200.0 mg/kg/injection, schedule: Q01DX001 (ip), vehicle: saline
  T/C: 110 % of control
[1]
  T/C: 104 % of control

## O=C1C2C(c3ccccc3)=C(c3ccccc3)C1C1(c3ccccc3)C(c3ccccc3)=CC(=O)C21 (stereo not given)
dose: 100.0 mg/kg/injection, schedule: Q01DX001 (ip), vehicle: Klucel (hydroxypropylcellulose) (HPC)
  T/C: 89 % of control
dose: 200.0 mg/kg/injection, schedule: Q01DX001 (ip), vehicle: Klucel (hydroxypropylcellulose) (HPC)
  T/C: 93 % of control
dose: 400.0 mg/kg/injection, schedule: Q01DX001 (ip), vehicle: Klucel (hydroxypropylcellulose) (HPC)
  T/C: 93 % of control

## Nc1nc(=S)c2ncn(C3OC(CO)C(O)C3O)c2[nH]1 (stereo not given)
dose: 1.0 mg/kg/injection, schedule: Q01DX005 (ip), vehicle: saline + alcohol
  T/C: 154 % of control
dose: 2.0 mg/kg/injection, schedule: Q01DX005 (ip), vehicle: saline + alcohol
  T/C: 152 % of control
dose: 4.0 mg/kg/injection, schedule: Q01DX005 (ip), vehicle: saline + alcohol
  T/C: 150 % of control
dose: 10.0 mg/kg/injection, schedule: Q03DX003 (ip), vehicle: saline
  T/C: 151 % of control
dose: 10.0 mg/kg/injection, schedule: Q04DX003 (ip), vehicle: saline
  T/C: 163 % of control
dose: 20.0 mg/kg/injection, schedule: Q01DX007 (ip), vehicle: saline
  T/C: 107 % of control
dose: 20.0 mg/kg/injection, schedule: Q03DX003 (ip), vehicle: saline
  T/C: 151 % of control
dose: 20.0 mg/kg/injection, schedule: Q04DX003 (ip), vehicle: saline
  T/C: 150 % of control
dose: 37.5 mg/kg/injection, schedule: Q01DX009 (ip), vehicle: saline
  T/C: 113 % of control
dose: 40.0 mg/kg/injection, schedule: Q01DX009 (ip), vehicle: saline
  T/C: 95 % of control
dose: 40.0 mg/kg/injection, schedule: Q04DX003 (ip), vehicle: saline
  T/C: 164 % of control
dose: 75.0 mg/kg/injection, schedule: Q01DX009 (ip), vehicle: saline
  T/C: 89 % of control
dose: 178.0 mg/kg/injection, schedule: Q01DX001 (ip), vehicle: saline
  T/C: 152 % of control
dose: 267.0 mg/kg/injection, schedule: Q01DX001 (ip), vehicle: saline
  T/C: 152 % of control
[1]
  T/C: 159 % of control

## CCOC(=O)c1c(NC(=O)CBr)sc(C)c1C
[2]
  T/C: 104 % of control
dose: 150.0 mg/kg/injection, schedule: Q01DX001 (ip), vehicle: saline
  T/C: 98 % of control
dose: 300.0 mg/kg/injection, schedule: Q01DX001 (ip), vehicle: saline
  T/C: 104 % of control

## FC1(F)C(Cl)=[C]([Hg][C]2=C(Cl)C(F)(F)C(F)(F)C2(F)F)C(F)(F)C1(F)F
[2]
  T/C: 98 % of control

## O=C(NCc1ccccc1)c1ccccc1/C(=N/O)c1ccccc1
dose: 100.0 mg/kg/injection, schedule: Q01DX001 (ip), vehicle: saline sonified
  T/C: 92 % of control
dose: 200.0 mg/kg/injection, schedule: Q01DX001 (ip), vehicle: saline sonified
  T/C: 94 % of control
dose: 400.0 mg/kg/injection, schedule: Q01DX001 (ip), vehicle: saline sonified
  T/C: 88 % of control

## CCOC(=O)Cc1c(C)[nH]c2c(Br)cc(C)c(C)c12
dose: 100.0 mg/kg/injection, schedule: Q01DX001 (ip), vehicle: other
  T/C: 98 % of control
dose: 200.0 mg/kg/injection, schedule: Q01DX001 (ip), vehicle: other
  T/C: 89 % of control
dose: 400.0 mg/kg/injection, schedule: Q01DX001 (ip), vehicle: other
  T/C: 110 % of control

## CCc1ccc(C2=C(O)C(=O)C(c3ccc(CC)cc3)=C(O)C2=O)cc1
dose: 1.56 mg/kg/injection, schedule: Q01DX001 (ip), vehicle: Klucel (hydroxypropylcellulose) (HPC)
  T/C: 97 % of control
dose: 3.12 mg/kg/injection, schedule: Q01DX009 (ip), vehicle: saline with Tween-80
  T/C: 97 % of control
dose: 3.13 mg/kg/injection, schedule: Q01DX001 (ip), vehicle: Klucel (hydroxypropylcellulose) (HPC)
  T/C: 96 % of control
dose: 6.25 mg/kg/injection, schedule: Q01DX001 (ip), vehicle: Klucel (hydroxypropylcellulose) (HPC)
  T/C: 96 % of control
dose: 6.25 mg/kg/injection, schedule: Q01DX009 (ip), vehicle: saline with Tween-80
  T/C: 89 % of control and 109 % of control
dose: 12.5 mg/kg/injection, schedule: Q01DX009 (ip), vehicle: saline with Tween-80
  T/C: 104 % of control
dose: 25.0 mg/kg/injection, schedule: Q01DX001 (ip), vehicle: Klucel (hydroxypropylcellulose) (HPC)
  T/C: 120 % of control
dose: 25.0 mg/kg/injection, schedule: Q01DX009 (ip), vehicle: saline with Tween-80
  T/C: 106 % of control and 111 % of control
dose: 50.0 mg/kg/injection, schedule: Q01DX009 (ip), vehicle: saline with Tween-80
  T/C: 119 % of control
